Results from patent publication US7169890B2, “Process for the production of ramoplanin-like amide derivatives” (Vicuron Pharmaceuticals Inc., priority 2002, dated 2007).

Experiments:
[1] = test system: methicillin-resistant Staphylococcus aureus SA 613; experiment: Murine infection, methicillin-resistant Staphylococcus aureus SA 613; format: in vivo; details: mice, i.p. infection, s.c. treatment, survival to day 7
Method: Mice were infected intraperitoneally with ca 10^7 CFU/mouse of Staphylococcus aureus SA 613. Untreated animals died within 24 hours after infection. Groups of eight mice each were treated iv or s.c. with different dose levels of ramoplanin or each test compound, starting 10–20 minutes after challenge. Ramoplanin and vancomycin were used as reference drugs.

[2] = test system: Staphylococcus aureus Smith SA 819; experiment: Murine septicaemia, Staphylococcus aureus Smith SA 819 systemic infection; format: in vivo; details: mice, i.p. infection, s.c. treatment, survival to day 7
Method: As an example, therapeutical effectiveness of some representative compounds of formula (Ia) in murine septicaemia caused by intraperitoneally administered Staphylococcus aureus Smith SA 819 was evaluated in comparison with ramoplanin. Vancomycin was chosen as reference drug for the evaluation of in vivo antiinfective activity.
Mice were infected intraperitoneally with Staphylococcus aureus Smith SA 819. Untreated animals died within 24 hours after infection. Groups of eight mice each were treated s.c. with different dose levels of ramoplanin or of each test compound, starting 10–20 min after challenge. Reference drugs was s.c. injected vancomycin.

[3] = test system: 560 Entero. faecalis VanA; experiment: MIC, broth microdilution NCCLS (isolated compounds or reaction solutions); format: cell-based, Enterococcus faecalis; details: for MIC: 560 Entero. faecalis VanA, isolated compounds
Method: (§1) The antimicrobial activity in vitro of the compounds obtained according to the process of this invention was evaluated against a panel of clinical isolates of methicillin-sensitive, methicillin-resistant and vancomycin-intermedie Staphylococcus aureus, Van-S and Van-A Enterococcus faecium and faecalis, Streptococcus pyogenes, Escherichiae coli and Candida albicans.
(§2) MICs were performed using the broth microdilution methodology following the NCCLS procedure (NCCLS Document M7-A4 Vol.17 No.2 January 1997) in presence of 0.02% albumine bovine serum with inocula of approximately 5×10^5 cfu/mL. The media employed included cation-adjusted Mueller-Hinton (MH) broth (Difco Laboratories, Detroit, Mich., USA) supplemented or not with 30% (v/v) bovine serum. Tests were read after 24 h incubation at 37° C.
(§3) A further set of experiments for measuring the antimicrobial activity in vitro of a series of compounds of formula (Ia) in comparison with the known compound 1 was carried out directly on the solutions deriving from the reaction of the starting acid of formula (IV) with the deacyl ramoplanin of formula (III) according to the method A described in the Examples.
(§4) The reaction solutions (resulting from the addition of 1M hydrochloric acid as described in Method A) were diluted at 6000 mcg/ml by adding 0.1% peptone Difco Laboratories, (Detroit, Mich., USA) plus 0.9% NaCl (PBS). The resulting solutions were diluted with water at the desired concentration to perform the test that was then carried out in the same way described for the isolated compounds reported in Table 2.

blood cells [4] = experiment: Haemolytic potential on blood cells (isolated compounds); format: cell-based, rats
Method: The ramoplanin-like amide derivatives were dissolved at 40.000 mcg/ml in dimethyl sulfoxide (DMSO) and then diluted 1:5 in 0.1% peptone Difco Laboratories, (Detroit, Mich., USA) plus 0.9% NaCl (PBS).
(§5) Whole blood sample was obtained from the dorsal aorta of rats and diluted 1:100 in PBS before the test.
Group 2—PBS as physiologic haemolysis control
Group 3—saponin (Sigma), solution at 3% in distilled water, as 100% haemolysis control.
(§6) The test groups were diluted 1:5 in blood cells and incubated in water bath at 37° C. for 45 minutes.
(§7) After the incubation time the samples were centrifuged at 2500–3000 g for 10 minutes, and 0.1 ml of each supernatant was diluted in 900 mcl of Drabkin's reagent (Sigma).
(§8) The optical density (OD) of the samples was measured at 540 nm versus a blank preparation of Drabkin's reagent plus 0.1 ml of PBS.
The test was performed in triplicate.
(§9) The percentage of haemolysis was calculate using the formula Δx/Δt×100=% of haemolysis
Δx=mean value of OD540 for each concentration tested (GROUP 1–2)
Δt=mean value of OD540 for 100% haemolysis control (GROUP 3).
(§10) The haemolysis was considered significant when exceeding at least 3 times the haemolytic value of blank control (GROUP 2).

[5] = test system: 569 Entero. faecium clin. isolate Van-A; experiment: MIC, broth microdilution NCCLS (isolated compounds or reaction solutions); format: cell-based, Enterococcus faecium; details: for MIC: 569 Entero. faecium clin. isolate Van-A, isolated compounds
Method: as §1, §2, §3, §4

47 E coli SKF12140 = experiment: as above; format: cell-based, Escherichiae coli; details: for MIC: 47 E coli SKF12140, isolated compounds
Method: as §1, §2, §3, §4

49 Strep. pyogenes C203 = experiment: as above; format: cell-based, Streptococcus pyogenes; details: for MIC: 49 Strep. pyogenes C203, isolated compounds
Method: as §1, §2, §3, §4

[6] = test system: 3798 Staph. aureus clin. isolate VISA; experiment: as above; format: cell-based, Staphylococcus aureus; details: for MIC: 3798 Staph. aureus clin. isolate VISA, isolated compounds
Method: as §1, §2, §3, §4

819 Staph. aureus Smith = experiment: as above; format: cell-based, Staphylococcus aureus; details: for MIC: 819 Staph. aureus Smith, isolated compounds
Method: as §1, §2, §3, §4

[7] = test system: 3797 Staph. aureus clin. isolate VISA Met-R; experiment: as above; format: cell-based, Staphylococcus aureus; details: for MIC: 3797 Staph. aureus clin. isolate VISA Met-R, isolated compounds
Method: as §1, §2, §3, §4

[8] = test system: 613 Staph. aureus clin. isolate Met-R; experiment: as above; format: cell-based, Staphylococcus aureus; details: for MIC: 613 Staph. aureus clin. isolate Met-R, isolated compounds
Method: as §1, §2, §3, §4

[9] = test system: 145 Candida albicans SKF2270; experiment: as above; format: cell-based; details: for MIC: 145 Candida albicans SKF2270, isolated compounds
Method: as §1, §2, §3, §4

[10] = test system: 559 Entero. faecalis (isogenic of L 560); experiment: as above; format: cell-based, Enterococcus faecalis
Method: as §1, §2, §3, §4

[11] = test system: 568 Entero. faecium (isogenic of L569); experiment: as above; format: cell-based, Enterococcus faecium
Method: as §1, §2, §3, §4

blood cells [12] = experiment: Haemolytic effect (reaction solutions); format: cell-based, rats
Method: as §5, §6, §7, §8, §9, §10
as §3, with “haemolytic effect” for “antimicrobial activity in vitro”
The reaction solutions (resulting from the addition of 1M hydrochloric acid as described in Method A) were diluted at 1200 mcg/ml by adding 0.1% peptone Difco Laboratories, (Detroit, Mich., USA) plus 0.9% NaCl (PBS).

[13] = reaction solutions, +30% bovine serum

| Compound | MIC ([3]; +30% bovine serum) [µg/mL] | MIC [3] [µg/mL] | % lyis at 100 mcg/ml (blood cells [4]) [%] | % lysis at 200 mcg/ml (blood cells [4]) [%] | % lysis at 400 mcg/ml (blood cells [4]) [%] | MIC ([5]; +30% bovine serum) [µg/mL] | MIC [5] [µg/mL] | MIC (47 E coli SKF12140) [µg/mL] | MIC (49 Strep. pyogenes C203) [µg/mL] | MIC ([6]; +30% bovine serum) [µg/mL] | MIC [6] [µg/mL] | MIC (819 Staph. aureus Smith; +30% bovine serum) [µg/mL] | MIC (819 Staph. aureus Smith; MH broth) [µg/mL] | MIC [7] [µg/mL] | MIC [8] [µg/mL] | MIC [9] [µg/mL] | further results |
| --- | --- | --- | --- | --- | --- | --- | --- | --- | --- | --- | --- | --- | --- | --- | --- | --- | --- |
| CN[C@H](CC(C)C)C(=O)N[C@H]1C(=O)N[C@@H](CC(N)=O)C(=O)N[C@H]2C(=O)N[C@H]3C(=O)N[C@H](C(=O)N[C@H](C(=O)O)c4cc(O)cc(O)c4-c4cc3ccc4O)[C@H](O)c3ccc(c(Cl)c3)Oc3cc2cc(c3O[C@@H]2O[C@H](CO)[C@@H](O)[C@H](O)[C@H]2O[C@H]2C[C@](C)(N)[C@H](O)[C@H](C)O2)Oc2ccc(cc2Cl)[C@H]1O [Vancomycin] |  |  |  |  |  |  |  |  |  |  |  |  |  |  |  |  | ED50 [1]: 8 mg/kg/dose; ED50 [2]: 0.64 mg/kg/dose |
| ramoplanin factor A1 [Compound 35] | 0.5 | <0.125 | 58.99 | 80.44 | 92.82 | 1 | <0.125 | >128 | <0.125 | 2 | 0.5 | 0.5 | <0.125 | 1 | <0.125 | >128 |  |
| ramoplanin factor A2 [Compound 1] | 2 | 0.06 | 86.04 | 100 | 100 | 2 | 0.125 | >32 | <0.03 | 16 | 1 | 4 | 0.125 | 2 | 0.25 | >32 | MIC 560 Entero. faecalis VanA +30% bovine serum [3, 13]: 2 µg/mL; MIC 560 Entero. faecalis VanA ([3]; reaction solutions, no serum): ≦0.125 mcg/ml; MIC ([10]; 559 Entero. faecalis (isogenic of L 560), isolated compounds): 0.06 µg/mL; MIC 559 Entero. faecalis (isogenic of L 560) ([10]; reaction solutions, no serum): ≦0.125 mcg/ml; MIC 568 Entero. faecium (isogenic of L569) ([11]; reaction solutions, no serum): ≦0.125 mcg/ml; MIC 569 Entero. faecium clin. isolate Van-A +30% bovine serum [5, 13]: 2 µg/mL; MIC 569 Entero. faecium clin. isolate Van-A ([5]; reaction solutions, no serum): ≦0.125 mcg/ml; MIC 47 E coli SKF12140 (47 E coli SKF12140; reaction solutions): >128 µg/mL; MIC 49 Strep. pyogenes C203 (49 Strep. pyogenes C203; reaction solutions, no serum): ≦0.125 mcg/ml; MIC 3798 Staph. aureus clin. isolate VISA +30% bovine serum [6, 13]: 8 µg/mL; MIC 3798 Staph. aureus clin. isolate VISA ([6]; reaction solutions, no serum): 1 µg/mL; MIC 819 Staph. aureus Smith +30% bovine serum (819 Staph. aureus Smith; [13]): 2 µg/mL; MIC 819 Staph. aureus Smith (819 Staph. aureus Smith; reaction solutions, no serum): ≦0.125 mcg/ml; MIC 3797 Staph. aureus clin. isolate VISA Met-R ([7]; reaction solutions, no serum): 2 µg/mL; MIC 613 Staph. aureus clin. isolate Met-R ([8]; reaction solutions, no serum): 0.25 µg/mL; % lysis at 300 mcg/ml (blood cells [12]; 300 mcg/ml): 74.39%; % lysis at 600 mcg/m (blood cells [12]; 600 mcg/m): 88.87%; MIC 145 Candida albicans SKF2270 ([9]; reaction solutions): >128 µg/mL |
| tetrahydroderivative of ramoplanin factor A1 [Compound 5] | 2 | 0.06 |  |  |  | 4 | 0.125 | >32 | <0.03 |  | 2 | 4 | 0.25 | 4 | 0.5 | >32 | MIC ([11]; 568 Entero. faecium (isogenic of L569), isolated compounds): 0.25 µg/mL |
